Patent publication US11173178B2, “Liposomes for drug delivery and methods for preparation thereof” (priority 2008, dated 2021)

Experiment: Stability of oxaliplatin in hydration solution (UV, absorbance at 254 nm)
Assay type: physicochemical
Description: Oxaliplatin was dissolved in a hydration solution containing 10% sucrose and 1 mM Calcium gluconate (10 mg/ml). Sucrose was added to obtain an osmolarity approximately corresponding to physiological salt concentration. Stability of oxaliplatin in the hydration solution was followed by UV measurement. Samples were taken continually during storage at room temperature. Sample concentration measured was 0.1 mg/ml oxaliplatin. In order to follow the oxaliplatin stability a scan was performed from 200-350 nm (FIG. 1) and the absorbance at 254 nm was compared during storage (FIG. 2). Major changes in absorbance at 254 nm are usually related to oxaliplatin decomposition, which can easily be observed by dissolving oxaliplatin in solutions containing hydroxide and/or chloride ions.

SMILES: O=C1[O][Pt]2([NH][C@@H]3CCCC[C@H]3[NH]2)[O]C1=O [Oxaliplatin, oxaliplatin]
- decomposition during storage (absorbance at 254 nm) (10% sucrose solution containing 1 mM calcium gluconate, room temperature, at least 35 days): practically no decomposition
- absorbance at 254 nm with common buffer components (phosphate, citrate, acetate, ethanolamine (data not shown)): decrease the absorbance at 254 nm
